Source: paper PMC12735921, “Evaluation of Antiproliferative Activity and Molecular Modeling Studies of Some Novel Benzimidazolone-Bridged Hybrid Compounds” (Pharmaceuticals, 2025)
Several values for one entry are separate records, joined by “and”; a condition that tells them apart may be missing. Equal values may be shown once.

Columns and labels:
Type in all cases: cell-based, human
A549 cells = assay: MTT cell viability assay, A549; details: for IC50: MTT, 48 h, mean ± SD, n = 3; for A549 Selectivity Index (SI): SI = IC50 (HEK 293)/IC50 (A549)
Method: (§1) Cell viability assay was performed on the human lung cancer (A549) (ATCC CCL-185), human breast cancer (MCF-7) (ATCC-HTB-22), cervical cancer (HeLa) (ATCC-CCL-2), and human embryonic kidney 293 (HEK293) (ATCC-CRL-1573) cell lines, which were purchased from Deutsche Sammlung von Mikroorganismen und Zellkulturen (DSMZ, Braunschweig, Germany). The cells were maintained in Dulbecco’s modified Eagle’s medium (DMEM), supplemented with 10% fetal bovine serum (FBS), 2 mM L-glutamine, 100 U/mL penicillin, and 100 mg/L streptomycin (Biochrom AG, Berlin, Germany) at 37 °C in a humidified atmosphere of 5% CO2.
(§2) The cytotoxic effect was determined by the MTT (3-(4,5-dimethyl-2-thiazolyl)-2,5-diphenyl-2H-tetrazolium bromide) cell viability assay. Cells were seeded at an initial concentration of 1 × 10^5 cells/mL in 96-well microplates. Cells were then treated with different concentrations (0.5, 5, 10, 25, 50, 100 and 200 µM) of the novel synthesized compounds for 48 h. After the incubation period, the formed formazan crystals were dissolved in dimethyl sulfoxide (DMSO), and the optical density (OD) of the compounds was measured at 570 nm using a spectrophotometer (BMG Labtech, Ortenberg, Germany). Cytotoxicity was expressed as an increase in the mean percentage of cytotoxicity relative to the unexposed control ± standard deviation (SD). […] Control values were set at 0% cytotoxicity. IC50 was calculated by fitting the data to a sigmoidal curve using a four-parameter logistic model and was presented as an average of three independent measurements. […] Doxorubicin was used as a positive control. Each sample was tested in triplicate.
(§3) To evaluate the selectivity of the tested compound(s) toward cancer cells over normal cells, the Selectivity Index (SI) was calculated using the following formula:SI = IC50 (normal cells)/IC50 (cancer cells)
(§4) An SI value greater than 2 was considered to indicate selective cytotoxicity, while values below 2 were interpreted as non-selective. Higher SI values reflect greater therapeutic potential due to reduced toxicity toward normal cells.

HeLa cells [1] = assay: MTT cell viability assay, HeLa; details: for IC50: MTT, 48 h, mean ± SD, n = 3; for HeLa Selectivity Index (SI): SI = IC50 (HEK 293)/IC50 (HeLa)
Method: as §1, §2, §3, §4

MCF-7 cells = assay: MTT cell viability assay, MCF-7; details: for IC50: MTT, 48 h, mean ± SD, n = 3; for MCF-7 Selectivity Index (SI): SI = IC50 (HEK 293)/IC50 (MCF-7)
Method: as §1, §2, §3, §4

HEK 293 cells = assay: MTT cell viability assay, non-cancerous HEK 293; details: mean ± SD, n = 3
Method: as §1
The cytotoxic effect was determined by the MTT (3-(4,5-dimethyl-2-thiazolyl)-2,5-diphenyl-2H-tetrazolium bromide) cell viability assay. Cells were seeded at an initial concentration of 1 × 10^5 cells/mL in 96-well microplates. Cells were then treated with different concentrations (0.5, 5, 10, 25, 50, 100 and 200 µM) of the novel synthesized compounds for 48 h. After the incubation period, the formed formazan crystals were dissolved in dimethyl sulfoxide (DMSO), and the optical density (OD) of the compounds was measured at 570 nm using a spectrophotometer (BMG Labtech, Ortenberg, Germany). Cytotoxicity was expressed as an increase in the mean percentage of cytotoxicity relative to the unexposed control ± standard deviation (SD). […] Control values were set at 0% cytotoxicity. IC50 was calculated by fitting the data to a sigmoidal curve using a four-parameter logistic model and was presented as an average of three independent measurements. […] Each sample was tested in triplicate.

HeLa cells [2] = assay: Total oxidative status (TOS), HeLa; details: IC50 concentration of compound, 48 h, H2O2 250 µM positive control, mean ± SD, n = 3
Method: TOS were evaluated using a commercially available kit (Rel Assay Diagnostics®, Gaziantep, Turkey) according to the manufacturer’s instructions. […] The TOS assay quantifies oxidizing agents based on their ability to convert an iron (II) ion chelator complex to iron (III) ions. The results were calibrated against hydrogen peroxide (H2O2, 250 µM) as a positive control for 48 h and expressed as µmol H2O2 equivalents per liter. The analysis was performed in three independent biological replicates (n = 3).

HeLa cells [3] = assay: Cell cycle analysis (PI staining, flow cytometry), HeLa; details: IC50 concentration, 48 h, mean ± SEM, n = 3
Method: Cell cycle distribution was assessed by propidium iodide (PI) staining and flow cytometry. HeLa, MCF-7, and A549 cells were seeded in 6-well plates at a density of 1 × 10^5 cells per well and allowed to attach overnight. […] Following exposure, both adherent and floating cells were collected, washed twice with cold phosphate-buffered saline (PBS, pH 7.4), and fixed overnight in 70% cold ethanol at 4 °C. After fixation, the cells were centrifuged and resuspended in 500 µL of PI/RNase staining solution containing 50 µg/mL PI and 100 µg/mL RNase A (Sigma-Aldrich®, St. Louis, MO, USA), followed by incubation in the dark for 30 min at 37 °C. The stained samples were analyzed using a Muse™ Cell Analyzer (Merck, Millipore, Germany) equipped with a 488 nm excitation laser and a 617 nm emission filter. A minimum of 10,000 events per sample were acquired after exclusion of debris and doublets via FSC-A vs. FSC-H gating. The DNA content histograms were generated automatically, and cell populations were expressed as percentages of G0/G1, S, and G2/M phases using the Muse™ Cell Cycle Analysis Software 1.5.0.0. All assays were conducted in triplicate biological repeats (n = 3), and results were reported as mean ± SEM.

HeLa cells [4] = assay: LDH leakage assay, HeLa; details: IC50 concentration of compound, 48 h, H2O2 positive control, mean ± SD, n = 3
Method: One hundred microliters of culture medium was transferred to a new 96-well plate. One hundred microliters of LDH reaction solution was added to each well, and absorbance was measured at 490 nm using an ELISA plate reader (BMG Labtech, Ortenberg, Germany) after 30 min.

HeLa cells [5] = assay: Intracellular GSH/GSSG ratio, HeLa; details: IC50 concentration of compound, 48 h, H2O2 positive control, mean ± SD, n = 3
Method: Intracellular reduced (GSH) and oxidized (GSSG) glutathione levels were measured using the GSH/GSSG Ratio Detection Assay Kit (Cayman Chemical, Ann Arbor, MI, USA, Cat. No: 703002) according to the manufacturer’s protocol. […] After treatment, cells were washed with cold PBS and lysed with MES buffer provided in the kit.
To prevent oxidation of GSH to GSSG during processing, samples were deproteinized using the supplied metaphosphoric acid solution and neutralized accordingly. Total glutathione and GSSG levels were measured separately by adding the appropriate buffers and reagents to the wells of a 96-well plate, followed by the addition of DTNB recycling reagent and glutathione reductase. Absorbance was read at 405 nm using a microplate reader (BMG Labtech, Germany). The amount of GSH was calculated by subtracting 2 × GSSG from the total glutathione, and the GSH/GSSG ratio was used to assess intracellular redox status.

Row | Compound | IC50 (A549 cells; Homo sapiens, A549) | A549 Selectivity Index (SI) (A549 cells) | IC50 (HeLa cells [1]; Homo sapiens, HeLa) | HeLa Selectivity Index (SI) (HeLa cells [1]) | IC50 (MCF-7 cells; Homo sapiens, MCF7) | MCF-7 Selectivity Index (SI) (MCF-7 cells) | IC50 (HEK 293 cells; Homo sapiens, HEK293, 48 h) | TOS (HeLa cells [2]) | cells in G0/G1 phase (HeLa cells [3]) | cells in G2/M phase (HeLa cells [3]) | cells in S phase (HeLa cells [3]) | LDH (HeLa cells [4]) | GSH/GSSG (HeLa cells [5]) | IC50 (A549 cells) | IC50 (HeLa cells [1]) | IC50 (MCF-7 cells) | IC50 (HEK 293 cells; 48 h)
1 | COc1cccc2cc(C(=O)NNC(=O)Cn3c(=O)n(CC(=O)NNC(=O)c4cc5cccc(OC)c5oc4=O)c4cc(Cl)c(Cl)cc43)c(=O)oc12 [Compound 12e, N′,N′′′ -(2,2′-(5,6-dichloro-2-oxo-1H-benzo[d]imidazole-1,3(2H)-diyl)bis(acetyl))bis(8-methoxy-2-oxo-2H-chromene-3-carbohydrazide)] | 52.8 ± 3 µM | 1.14 | 54.3 ± 3.13 µM | 1.1 | 65.1 ± 3.76 µM | 0.92 | 60.2 ± 3.47 µM |  |  |  |  |  |  |  |  |  | 
2 | O=C(Cn1c(=O)n(CC(=O)N/N=C/c2cccs2)c2cc(Cl)c(Cl)cc21)N/N=C/c1cccs1 [Compound 5] | 48.3 ± 2.79 µM | 1.22 | 26.1 ± 1.5 µM | 2.27 | 50.2 ± 2.9 µM | 1.18 | 59.4 ± 3.43 µM | 6.9 ± 0.5 µmol H2O2 eq/L and 6.9 ± 0.5 ^a,b µmol H2O2 eq/L | 44.5 ± 2.2% | 30.0 ± 1.5% | 25.5 ± 1.6% | 24.8 ± 2.1 µU/mL and 24.8 ± 2.1 ^a,b µU/mL | 11.8 ± 1.3 |  |  |  | 
3 | NNC(=O)Cn1c(=O)n(CC(=O)NN)c2cc(Cl)c(Cl)cc21 [Compound 3, 2,2′-(5,6-Dichloro-2-oxo-1H-benzimidazole-1,3(2H)-diyl)diacetohydrazide] | 63.5 ± 3.6 µM | 1.06 | 75.4 ± 4.35 µM | 0.89 | 69.8 ± 4.03 µM | 0.97 | 67.9 ± 3.9 µM |  |  |  |  |  |  |  |  |  | 
4 | O=C(Cn1c(=O)n(CC(=O)NNC(=O)c2cc3ccccc3oc2=O)c2cc(Cl)c(Cl)cc21)NNC(=O)c1cc2ccccc2oc1=O [Compound 12a, N′,N′′′ -(2,2′-(5,6-dichloro-2-oxo-1H-benzo[d]imidazole-1,3(2H)-diyl)bis(acetyl))bis(2-oxo-2H-chromene-3-carbohydrazide)] | 21.7 ± 1.25 µM | 2.05 | 48.5 ± 2.8 µM | 0.91 | 50.8 ± 2.93 µM | 0.87 | 44.6 ± 2.57 µM |  |  |  |  |  |  |  |  |  | 
5 | 2,2′-(5,6-Dichloro-2-oxo-1H-benzimidazole-1,3(2H)-diyl)bis[N′-(furan-2-ylmethylidene) acetohydrazide] [Compound 4] |  |  |  |  |  |  |  |  |  |  |  |  |  | 48 ± 2.77 µM | 72 ± 4.16 µM | 58 ± 3.35 µM | 55 ± 3.17 µM
6 | O=C(Cn1c(=O)n(CC(=O)c2ccccc2)c2cc(Cl)c(Cl)cc21)c1ccccc1 [Compound 8, 5,6-Dichloro-1,3-bis(2-oxo-2-phenylethyl)-1,3-dihydro-2H-benzimidazol-2-one] | 19.1 ± 1.1 µM | 0.91 | 23.9 ± 1.38 µM | 0.73 | 21.7 ± 1.25 µM | 0.8 | 17.5 ± 1.01 µM |  |  |  |  |  |  |  |  |  | 
7 | COc1cccc2c1C(=O)c1c(O)c3c(c(O)c1C2=O)C[C@@](O)(C(=O)CO)C[C@@H]3O[C@H]1C[C@H](N)[C@H](O)[C@H](C)O1 [Doxorubicin, reference compound] | 4.3 ± 0.2 µM |  | 3.4 ± 0.19 µM |  | 6.4 ± 0.37 µM |  |  |  |  |  |  |  |  |  |  |  | 
8 | CCN(CC)c1ccc2cc(C(=O)NNC(=O)Cn3c(=O)n(CC(=O)NNC(=O)c4cc5ccc(N(CC)CC)cc5oc4=O)c4cc(Cl)c(Cl)cc43)c(=O)oc2c1 [Compound 12f] | 23.6 ± 1.3 µM | 1.84 | 29.1 ± 1.26 µM | 1.49 | 26.4 ± 1.52 µM | 1.64 | 43.5 ± 2.51 µM |  |  |  |  |  |  |  |  |  | 
9 | CCOC(=O)Cn1c(=O)n(CC(=O)OCC)c2cc(Cl)c(Cl)cc21 [Compound 2, Diethyl 2,2′-(5,6-Dichloro-2-oxo-1H-benzimidazole-1,3(2H)-diyl)diacetate] | 60.8 ± 3.51 µM | 1.17 | 68.8 ± 3.9 µM | 1.04 | 63.2 ± 3.65 µM | 1.13 | 71.3 ± 4.12 µM |  |  |  |  |  |  |  |  |  | 
